Consider six molecules from patent publication US9067977B2, “Peptides derivatized with A-B-C-D- and their therapeutical use” (Novo Nordisk A/S, priority 2007, dated 2015).

Starred links: 1 amine or outer side, 2 acyl side, 3 side chain; linkers in the order of their positions; H or OH if unused. Non-standard residues stand in square brackets, D forms with d. Residues, ends and D or L forms follow the SMILES beside them. Groups on a side chain read outwards from the residue. *: point of attachment. C20 diacid = O=C(O)CCCCCCCCCCCCCCCCCCC(=O)*; C18 diacid = O=C(O)CCCCCCCCCCCCCCCCC(=O)*; d(βAsp) = O=C(O)[C@@H](CC(=O)[*:2])N[*:1]; γGlu = O=C(O)[C@H](CCC(=O)[*:2])N[*:1]; 2Nal = N[C@@H](Cc1ccc2ccccc2c1)C(=O)O; Desaminohistidyl = O=C(CCc1c[nH]cn1)*; AEEA = NCCOCCOCC(=O)O; Aib = CC(C)(N)C(=O)O; Inp = O=C(O)C1CCNCC1; Bn = c1ccc(C*)cc1

As usually defined, the EC50 is the concentration that produces a half-maximal response.

The target in this test is human serum albumin (HSA) (Homo sapiens, UniProt P02768). The test is described as follows: Albumin binding affinity, competition scintillation proximity assay. (Scintillation proximity formats need no separation of bound from free tracer.)
Sequence of human serum albumin (HSA) (P02768 25-609): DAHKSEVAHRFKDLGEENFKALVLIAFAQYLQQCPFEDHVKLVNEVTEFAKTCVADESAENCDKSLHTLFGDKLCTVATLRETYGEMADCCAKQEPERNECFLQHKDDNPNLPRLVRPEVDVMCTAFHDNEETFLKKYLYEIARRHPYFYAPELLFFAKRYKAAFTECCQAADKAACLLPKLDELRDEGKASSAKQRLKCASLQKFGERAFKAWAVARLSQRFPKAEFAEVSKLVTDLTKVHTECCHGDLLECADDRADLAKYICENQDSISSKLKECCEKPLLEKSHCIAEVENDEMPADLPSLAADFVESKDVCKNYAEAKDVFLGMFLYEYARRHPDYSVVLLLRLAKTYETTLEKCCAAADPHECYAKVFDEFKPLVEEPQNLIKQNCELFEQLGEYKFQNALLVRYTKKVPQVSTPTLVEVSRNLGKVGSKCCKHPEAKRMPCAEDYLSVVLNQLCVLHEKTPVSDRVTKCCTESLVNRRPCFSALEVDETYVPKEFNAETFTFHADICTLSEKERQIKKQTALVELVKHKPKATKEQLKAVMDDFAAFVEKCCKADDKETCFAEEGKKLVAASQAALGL

Experimental: Streptavidin-SPA beads (GE Healthcare RPNQ0009) were incubated with biotinylated HSA for 5 hours. The beads were washed with buffer to remove unbound HSA. […] After 20 hours of gentle rocking at room temperature the plates were centrifuged and counted on a TopCounter.

Turning to `CC[C@H](C)[C@H](NC(=O)[C@H](Cc1ccccc1)NC(=O)[C@H](CCC(=O)O)NC(=O)[C@H](CCCNC(=N)N)NC(=O)[C@H](C)NC(=O)[C@H](C)NC(=O)[C@H](CCC(N)=O)NC(=O)CNC(=O)[C@H](CCC(=O)O)NC(=O)[C@H](CCCCNC(=O)COCCOCCNC(=O)COCCOCCNC(=O)C[C@@H](NC(=O)C1CCN(C(=O)CCCCCCCCCCCCCCCCC(=O)O)CC1)C(=O)O)NC(=O)[C@H](Cc1ccc(O)cc1)NC(=O)[C@H](CO)NC(=O)[C@H](CO)NC(=O)[C@@H](NC(=O)[C@H](CC(=O)O)NC(=O)[C@H](CO)NC(=O)[C@@H](NC(=O)[C@H](Cc1ccccc1)NC(=O)[C@@H](NC(=O)CNC(=O)[C@H](CCC(=O)O)NC(=O)C(C)(C)NC(=O)[C@@H](N)Cc1c[nH]cn1)[C@@H](C)O)[C@@H](C)O)C(C)C)C(=O)N[C@@H](CCC(=O)O)C(=O)N[C@@H](Cc1c[nH]c2ccccc12)C(=O)N[C@@H](CC(C)C)C(=O)N[C@H](C(=O)N[C@@H](CCCCN)C(=O)NCC(=O)N[C@@H](CCCNC(=N)N)C(=O)NCC(N)=O)[C@@H](C)OCc1ccccc1` [Example 8, N-ε^20({2-[2-(2-{2-[2-((R)-3-carboxy-3-{[1-(17-carboxyheptadecanoyl)piperidine-4-carbonyl]amino}propionylamino)ethoxy]ethoxy}acetylamino)ethoxy]ethoxy}acetyl) [Aib^8,Lys^20,Arg^28,Glu^30,Thr(O-benzyl)^33]GLP-1-(7-37)amide] (H-H[Aib]EGTFTSDVSSYK([AEEA-AEEA-d(βAsp)-Inp-C18 diacid])EGQAAREFIEWLT(Bn)KGRG-NH2; N-terminus assumed), the EC50 lay in the range of 300 to 800 nM.

`CC[C@H](C)[C@H](NC(=O)[C@H](Cc1ccccc1)NC(=O)[C@H](CCC(=O)O)NC(=O)[C@H](CCCNC(=N)N)NC(=O)[C@H](C)NC(=O)[C@H](C)NC(=O)[C@H](CCC(N)=O)NC(=O)[C@H](CCC(=O)O)NC(=O)[C@H](CCC(=O)O)NC(=O)[C@H](CC(C)C)NC(=O)[C@H](Cc1ccc(O)cc1)NC(=O)[C@H](CO)NC(=O)[C@H](CO)NC(=O)[C@@H](NC(=O)[C@H](CC(=O)O)NC(=O)[C@H](CO)NC(=O)[C@@H](NC(=O)[C@H](Cc1ccccc1)NC(=O)[C@@H](NC(=O)CNC(=O)[C@H](CCC(=O)O)NC(=O)C(C)(C)NC(=O)[C@@H](N)Cc1c[nH]cn1)[C@@H](C)O)[C@@H](C)O)C(C)C)C(=O)N[C@@H](CCCCNC(=O)COCCOCCNC(=O)COCCOCCNC(=O)C[C@H](NC(=O)C1CCN(C(=O)CCCCCCCCCCCCCCCCCCC(=O)O)CC1)C(=O)O)C(=O)N[C@@H](Cc1c[nH]c2ccccc12)C(=O)N[C@@H](CC(C)C)C(=O)N[C@H](C(=O)N[C@@H](CCCCN)C(=O)NCC(=O)N[C@@H](CCCNC(=N)N)C(=O)NCC(=O)O)C(C)C` [Example 9, N-epsilon30{2-[2-(2-{2-[2-((S)-3-carboxy-3-{[1-(19-carboxynonadecanoyl)piperidine-4-carbonyl]amino}propionylamino)ethoxy]ethoxy}acetylamino)ethoxy]ethoxy}acetyl [Aib8,Glu22,Arg26,Lys30]GLP-1-(7-37)] returned an EC50 of 150 to 300 nM.

Molecule `CC[C@H](C)[C@H](NC(=O)[C@H](Cc1ccc2ccccc2c1)NC(=O)[C@H](CCC(=O)O)NC(=O)[C@H](CCCNC(=N)N)NC(=O)[C@H](C)NC(=O)[C@H](C)NC(=O)[C@H](CCC(N)=O)NC(=O)CNC(=O)[C@H](CCC(=O)O)NC(=O)[C@H](CCCCNC(=O)COCCOCCNC(=O)COCCOCCNC(=O)C[C@@H](NC(=O)C1CCN(C(=O)CCCCCCCCCCCCCCCCC(=O)O)CC1)C(=O)O)NC(=O)[C@H](Cc1ccc(O)cc1)NC(=O)[C@H](CO)NC(=O)[C@H](CO)NC(=O)[C@@H](NC(=O)[C@H](CC(=O)O)NC(=O)[C@H](CO)NC(=O)[C@@H](NC(=O)[C@H](Cc1ccccc1)NC(=O)[C@@H](NC(=O)CNC(=O)[C@H](CCC(=O)O)NC(=O)C(C)(C)NC(=O)[C@@H](N)Cc1c[nH]cn1)[C@@H](C)O)[C@@H](C)O)C(C)C)C(=O)N[C@@H](CCC(=O)O)C(=O)N[C@@H](Cc1c[nH]c2ccccc12)C(=O)N[C@@H](CC(C)C)C(=O)N[C@H](C(=O)N[C@@H](CCCCN)C(=O)NCC(=O)N[C@@H](CCCNC(=N)N)C(=O)NCC(N)=O)C(C)C` [Example 11, N-ε^20({2-[2-(2-{2-[2-((R)-3-carboxy-3-{[1-(17-carboxyheptadecanoyl)piperidine-4-carbonyl]amino}propionylamino)ethoxy]ethoxy}acetylamino)ethoxy]ethoxy}acetyl) [Aib^8,Lys^20,Arg^26,2-Naphtylalanine^28, Glu^30]GLP-1 (7-37)amide] (H-H[Aib]EGTFTSDVSSYK([AEEA-AEEA-d(βAsp)-Inp-C18 diacid])EGQAARE[2Nal]IEWLVKGRG-NH2; N-terminus assumed) registered an EC50 of 800 to 2000 nM.

Regarding `CC[C@H](C)[C@H](NC(=O)[C@H](Cc1ccccc1)NC(=O)[C@H](CCC(=O)O)NC(=O)[C@H](CCCNC(=N)N)NC(=O)[C@H](C)NC(=O)[C@H](C)NC(=O)[C@H](CCC(N)=O)NC(=O)[C@H](CCC(=O)O)NC(=O)[C@H](CCC(=O)O)NC(=O)[C@H](CC(C)C)NC(=O)[C@H](Cc1ccc(O)cc1)NC(=O)[C@H](CO)NC(=O)[C@H](CO)NC(=O)[C@@H](NC(=O)[C@H](CC(=O)O)NC(=O)[C@H](CO)NC(=O)[C@@H](NC(=O)[C@H](Cc1ccccc1)NC(=O)[C@@H](NC(=O)CNC(=O)[C@H](CCC(=O)O)NC(=O)C(C)(C)NC(=O)[C@@H](N)Cc1c[nH]cn1)[C@@H](C)O)[C@@H](C)O)C(C)C)C(=O)N[C@@H](C)C(=O)N[C@@H](Cc1c[nH]c2ccccc12)C(=O)N[C@@H](CC(C)C)C(=O)N[C@H](C(=O)N[C@@H](CCCNC(=N)N)C(=O)NCC(=O)N[C@@H](CCCNC(=N)N)C(=O)NCC(=O)N[C@@H](CCCCNC(=O)COCCOCCNC(=O)COCCOCCNC(=O)CC[C@H](NC(=O)C1CCN(C(=O)CCCCCCCCCCCCCCCCCCC(=O)O)CC1)C(=O)O)C(N)=O)C(C)C` [Example 12, [Aib8, Glu22, Arg26, Arg34]GLP-1-(7-37)Lys[2-(2-[2-(2-[2-(2-((S)-4-[1-[19-Carboxynonadecanoyl]piperidine-4-carbonylamino]-4-carboxybutyrylamino)ethoxy)ethoxy]acetylamino)ethoxy]ethoxy)acetyl]amide] (H-H[Aib]EGTFTSDVSSYLEEQAAREFIAWLVRGRGK([AEEA-AEEA-γGlu-Inp-C20 diacid])-NH2), the EC50 is 300 to 800 nM.

Molecule `CC[C@H](C)[C@H](NC(=O)[C@H](Cc1ccccc1)NC(=O)[C@H](CCC(=O)O)NC(=O)[C@H](CCCNC(=N)N)NC(=O)[C@H](C)NC(=O)[C@H](C)NC(=O)[C@H](CCC(N)=O)NC(=O)CNC(=O)[C@H](CCC(=O)O)NC(=O)[C@H](CCCCNC(=O)COCCOCCNC(=O)COCCOCCNC(=O)C[C@@H](NC(=O)C1CCN(C(=O)CCCCCCCCCCCCCCCCC(=O)O)CC1)C(=O)O)NC(=O)[C@H](Cc1ccc(O)cc1)NC(=O)[C@H](CO)NC(=O)[C@H](CO)NC(=O)[C@@H](NC(=O)[C@H](CC(=O)O)NC(=O)[C@H](CO)NC(=O)[C@@H](NC(=O)[C@H](Cc1ccc2ccccc2c1)NC(=O)[C@@H](NC(=O)CNC(=O)[C@H](CCC(=O)O)NC(=O)C(C)(C)NC(=O)[C@@H](N)Cc1c[nH]cn1)[C@@H](C)O)[C@@H](C)O)C(C)C)C(=O)N[C@@H](CCC(=O)O)C(=O)N[C@@H](Cc1c[nH]c2ccccc12)C(=O)N[C@@H](CC(C)C)C(=O)N[C@H](C(=O)N[C@@H](CCCCN)C(=O)NCC(=O)N[C@@H](CCCNC(=N)N)C(=O)NCC(N)=O)C(C)C` [Example 13, N-ε^20({2-[2-(2-{2-[2-((R)-3-carboxy-3-{[1-(17-carboxyheptadecanoyl)piperidine-4-carbonyl]amino}propionylamino)ethoxy]ethoxy}acetylamino)ethoxy]ethoxy}acetyl) [Aib^8,Lys^20,Arg^26,2-Naphtylalanine^12, Glu^30]GLP-1-(7-37)amide] (H-H[Aib]EGT[2Nal]TSDVSSYK([AEEA-AEEA-d(βAsp)-Inp-C18 diacid])EGQAAREFIEWLVKGRG-NH2; N-terminus assumed) gave an EC50 of 150 to 300 nM.

On to `CC[C@H](C)[C@H](NC(=O)[C@H](Cc1ccccc1)NC(=O)[C@H](CCC(=O)O)NC(=O)[C@H](CCCNC(=N)N)NC(=O)[C@H](C)NC(=O)[C@H](C)NC(=O)[C@H](CCC(N)=O)NC(=O)[C@H](CCC(=O)O)NC(=O)[C@H](CCC(=O)O)NC(=O)[C@H](CC(C)C)NC(=O)[C@H](Cc1ccc(O)cc1)NC(=O)[C@H](CO)NC(=O)[C@H](CO)NC(=O)[C@@H](NC(=O)[C@H](CC(=O)O)NC(=O)[C@H](CO)NC(=O)[C@@H](NC(=O)[C@H](Cc1ccccc1)NC(=O)[C@@H](NC(=O)CNC(=O)[C@H](CCC(=O)O)NC(=O)[C@H](C)NC(=O)CCc1c[nH]cn1)[C@@H](C)O)[C@@H](C)O)C(C)C)C(=O)N[C@@H](C)C(=O)N[C@@H](Cc1c[nH]c2ccccc12)C(=O)N[C@@H](CC(C)C)C(=O)N[C@H](C(=O)N[C@@H](CCCNC(=N)N)C(=O)NCC(=O)N[C@@H](CCCNC(=N)N)C(=O)NCC(=O)N[C@@H](CCCCNC(=O)COCCOCCNC(=O)COCCOCCNC(=O)CC[C@H](NC(=O)C1CCN(C(=O)CCCCCCCCCCCCCCCCCCC(=O)O)CC1)C(=O)O)C(N)=O)C(C)C` [Example 14, [DesaminoHis7,Glu22,Arg26,Arg34]GLP-1-(7-37)Lys[2-(2-[2-(2-[2-(2-((S)-4-[1-[19-Carboxynonadecanoyl]piperidine-4-carbonylamino]-4-carboxybutyrylamino)ethoxy)ethoxy]acetylamino)ethoxy]ethoxy)acetyl]amide] (Desaminohistidyl-AEGTFTSDVSSYLEEQAAREFIAWLVRGRGK([AEEA-AEEA-γGlu-Inp-C20 diacid])-NH2), for which the EC50 lay in the range of 300 to 800 nM.
